According to paper PMC10791743, “Selective CK1α degraders exert antiproliferative activity against a broad range of human cancer cell lines” (Nature Communications, 2024):

What was measured:
Experiment in all cases: cells
Parameters in all cases: Oncolines panel cell viability, ATPlite 1Step luminescence, duplicate 9-point dose response, IC50
[1] = test system: Daoy; conditions: Homo sapiens, Daoy; 72 h viability; read-out: SJ3149
Experimental: (§1) Cell viability assays were performed as previously described. In brief, cells were seeded in a 384-well plate at an optimized density. The starting cell number was determined after 24 h incubation by adding ATPlite 1Step (Perkin Elmer, Groningen, the Netherlands) to each well and recording luminescence on an Envision multimode reader (Perkin Elmer, Waltham, MA). After the addition of a duplicate 9-point dilution series of SJ3149, cells were incubated for another 72 h, followed by cell counting using ATPlite 1Step. The dilution series ranged from 3.2 to 31,600 nM or was diluted 100-fold for the most sensitive cell lines to ideally capture the complete dose–response curve. Percentage viability was determined at each compound concentration by relating the observed signal to a vehicle-treated control, that is, medium containing 0.4% (v/v) DMSO. Compound IC50 values were calculated by fitting a 4-parameter logistic curve to the percentage viability values using IDBS XLfit5 (IDBS, Guildford, UK). The IC50 was limited to the maximum tested compound concentration when the IC50 exceeded the maximum tested concentration. […] To evaluate the compound’s effect and potential therapeutic application across a diverse range of human cancers, we profiled SJ3149 in Oncolines® panel consisting of 115 human cancer cell lines, of which 86 were solid tumor and 29 hematologic cell lines, including MOLM-13. Effect on cell viability was monitored using ATPLite™ (Perkin Elmer), which measures intracellular ATP content as an indirect readout of cell number, like CellTiter Glo.

[2] = test system: ES-2; conditions: Homo sapiens, ES-2; 72 h viability; read-out: SJ3149
Experimental: as §1

[3] = test system: SJCRH30; conditions: 72 h viability; read-out: SJ3149
Experimental: as §1

[4] = test system: BxPC-3; conditions: Homo sapiens, BXPC-3; 72 h viability; read-out: SJ3149
Experimental: as §1

[5] = test system: NB4; conditions: Homo sapiens, NB-4; 72 h viability; read-out: SJ3149
Experimental: as §1

[6] = test system: CAL 27; conditions: Homo sapiens, CAL-27; 72 h viability; read-out: SJ3149
Experimental: as §1

[7] = test system: NCI-H460; conditions: Homo sapiens, NCI-H460; 72 h viability; read-out: SJ3149
Experimental: as §1

[8] = test system: AsPC-1; conditions: Homo sapiens, ASPC1; 72 h viability; read-out: SJ3149
Experimental: as §1

[9] = test system: PC-3; conditions: Homo sapiens, PC-3; 72 h viability; read-out: SJ3149
Experimental: as §1

[10] = test system: G-361; conditions: Homo sapiens, G-361; 72 h viability; read-out: SJ3149
Experimental: as §1

[11] = test system: COLO 205; conditions: Homo sapiens, COLO 205; 72 h viability; read-out: SJ3149
Experimental: as §1

[12] = test system: C-33 A; conditions: Homo sapiens, C-33-A; 72 h viability; read-out: SJ3149
Experimental: as §1

[13] = test system: HL-60; conditions: Homo sapiens, HL-60; 72 h viability; read-out: SJ3149
Experimental: as §1

[14] = test system: Hs 766T; conditions: Hs766T; 72 h viability; read-out: SJ3149
Experimental: as §1

[15] = test system: AN3 CA; conditions: Homo sapiens, AN3-CA; 72 h viability; read-out: SJ3149
Experimental: as §1

[16] = test system: A388; conditions: 72 h viability; read-out: SJ3149
Experimental: as §1

[17] = test system: SW872; conditions: Homo sapiens, SW872; 72 h viability; read-out: SJ3149
Experimental: as §1

[18] = test system: U-87 MG; conditions: Homo sapiens, U-87 MG; 72 h viability; read-out: SJ3149
Experimental: as §1

[19] = test system: DU 145; conditions: Homo sapiens, DU-145; 72 h viability; read-out: SJ3149
Experimental: as §1

[20] = test system: SW480; conditions: Homo sapiens, SW480; 72 h viability; read-out: SJ3149
Experimental: as §1

Measured: IC50

O=C1CCC(N2Cc3cc(Nc4noc5ccccc45)ccc3C2=O)C(=O)N1 (centres unmarked) [SJ3149]
> 31.6 µM: all assays above
